{"source": "patent US8278262B2", "about": "“Use of microproteins as tryptase inhibitors” (BioNTech AG, priority 2004, dated 2012)", "key": {"β3-Tryptase": {"molecular_target": "β3-Tryptase (Homo sapiens, UniProt P20231)", "sequence (P20231 31-275)": "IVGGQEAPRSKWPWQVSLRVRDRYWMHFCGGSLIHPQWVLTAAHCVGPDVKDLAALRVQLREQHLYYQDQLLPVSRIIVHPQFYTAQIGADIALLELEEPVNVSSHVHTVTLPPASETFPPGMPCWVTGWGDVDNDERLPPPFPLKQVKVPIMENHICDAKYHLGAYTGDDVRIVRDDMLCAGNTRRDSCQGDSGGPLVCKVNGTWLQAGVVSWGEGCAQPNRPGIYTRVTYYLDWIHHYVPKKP", "test": "Kiapp determination with tryptase (Example 3)", "format": "biochemical", "protocol": "(§1) Tryptase (0.2 nM) was preincubated with McoTi-KVV (0-34 nM) at 37 degree C. for 60 min, and the reaction was initiated by the addition of substrate tos-Gly-Pro-Arg-AMC. The residual steady state velocities were measured over 10 min and are expressed in % of the activity measured in the absence of the inhibitor.\nas §1, with “MCoEeTI (0-1950” for “McoTi-KVV (0-34”"}, "bovine trypsin": {"molecular_target": "T1, bovine trypsin (Bos taurus, UniProt P00760)", "T1 construct": "purchased Serva", "T1 sequence (P00760 24-246)": "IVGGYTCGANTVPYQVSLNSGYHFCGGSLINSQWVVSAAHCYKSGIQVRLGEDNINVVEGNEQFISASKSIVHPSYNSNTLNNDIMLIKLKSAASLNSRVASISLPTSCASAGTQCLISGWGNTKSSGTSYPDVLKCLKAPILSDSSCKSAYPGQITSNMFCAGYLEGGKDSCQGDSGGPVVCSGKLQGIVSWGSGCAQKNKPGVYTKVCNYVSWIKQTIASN", "test": "Trypsin inhibition with substrate Boc-Leu-Gly-Arg-pNA (Example 4)", "format": "biochemical", "settings": "as barnase′ fusion proteins", "protocol": "The inhibitory activity of the protein variants was measured according to van Nostrand et al. (1990) and Sinha et al. (1991). The remaining activity of bovine trypsin (Serva) was determined after incubation with the respective inhibitor for 10 min at 37° C. by monitoring hydrolysis of the chromogenic substrate Boc-Leu-Gly-Arg-pNA (Bachem, solubilized in Me2SO) at 405 nm. Assays were performed in a final volume of 100 μl in 50 mM Tris-HCl, pH 7.5, 150 mM NaCl, 5 mM CaCl2 at 37° C. containing 5 nM of trypsin, […] and varying amounts of inhibitor (10^−10-10^−6 M). For calculation of Kiapp-values, vmax values were determined and the curve fitting tool of SigmaPlot (Jandel Scientific) was applied on the basis of the following formula, that describes the case of competitive tight binding inhibitors (Morrison, 1969):\n[formula] vi=vmax value of inhibited reaction v0=vmax value of uninhibited reaction [Et]=total enzyme concentration (free and in complex) [It]=total inhibitor concentration (free and in complex) Kiapp=apparent dissociation constant of the enzyme-inhibitor complex. Results and Discussion Choice of Carrier Protein and Production Strategy"}, "Tryptase β-Ia": {"molecular_target": "Tryptase β-Ia (Homo sapiens, UniProt Q15661)", "sequence (Q15661 31-275)": "as the sequence (P20231 31-275) above, with R21H, D22G, R23P counted along it", "test": "biochemical"}, "Thrombin": {"molecular_target": "Thrombin (Homo sapiens, UniProt P00734)", "test": "biochemical"}, "Chymotrypsin": {"molecular_target": "Chymotrypsin", "test": "Protease selectivity, Kiapp", "format": "biochemical", "settings": "Porcine"}, "tPA": {"molecular_target": "tPA (Homo sapiens, UniProt P00750)", "sequence (P00750 36-562)": "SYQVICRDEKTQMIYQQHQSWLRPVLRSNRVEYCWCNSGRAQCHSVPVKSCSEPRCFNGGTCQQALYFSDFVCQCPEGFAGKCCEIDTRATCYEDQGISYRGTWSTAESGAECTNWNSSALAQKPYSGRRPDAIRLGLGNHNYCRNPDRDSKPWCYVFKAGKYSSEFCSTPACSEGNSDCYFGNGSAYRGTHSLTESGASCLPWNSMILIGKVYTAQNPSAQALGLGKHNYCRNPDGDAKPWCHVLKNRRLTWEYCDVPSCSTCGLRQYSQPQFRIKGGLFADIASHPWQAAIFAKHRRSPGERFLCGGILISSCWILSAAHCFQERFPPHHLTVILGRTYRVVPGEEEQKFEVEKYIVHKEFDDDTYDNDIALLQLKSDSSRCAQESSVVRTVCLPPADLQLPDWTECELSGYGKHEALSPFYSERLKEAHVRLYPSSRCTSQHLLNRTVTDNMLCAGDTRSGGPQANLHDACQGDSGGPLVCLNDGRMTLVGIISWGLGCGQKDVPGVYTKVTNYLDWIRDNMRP", "test": "biochemical"}, "Elastase (Neutrophiles)": {"molecular_target": "Elastase (Neutrophiles) (Homo sapiens, UniProt P08246)", "sequence (P08246 30-267)": "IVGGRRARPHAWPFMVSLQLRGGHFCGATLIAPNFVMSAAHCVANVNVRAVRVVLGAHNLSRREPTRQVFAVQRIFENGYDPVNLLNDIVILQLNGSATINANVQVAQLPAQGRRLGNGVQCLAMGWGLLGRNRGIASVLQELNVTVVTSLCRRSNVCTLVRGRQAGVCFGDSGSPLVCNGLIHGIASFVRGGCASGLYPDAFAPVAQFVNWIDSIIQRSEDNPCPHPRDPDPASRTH", "test": "biochemical"}, "Faktor XA": {"molecular_target": "Faktor XA (Homo sapiens, UniProt P00742)", "sequence (P00742 235-488 limits assumed)": "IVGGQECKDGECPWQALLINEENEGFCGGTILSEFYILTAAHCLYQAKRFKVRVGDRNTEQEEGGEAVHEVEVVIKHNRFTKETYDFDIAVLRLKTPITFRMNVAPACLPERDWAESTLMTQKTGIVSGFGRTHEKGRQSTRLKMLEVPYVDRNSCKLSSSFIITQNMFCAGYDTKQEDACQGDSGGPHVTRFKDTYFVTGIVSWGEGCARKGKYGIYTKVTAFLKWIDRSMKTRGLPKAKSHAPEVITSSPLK", "sequence (P00742 41-179 partner limits assumed)": "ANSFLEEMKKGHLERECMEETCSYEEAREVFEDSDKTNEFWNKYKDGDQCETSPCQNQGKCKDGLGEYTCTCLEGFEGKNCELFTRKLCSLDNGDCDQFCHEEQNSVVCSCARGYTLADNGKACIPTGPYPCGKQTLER", "test": "biochemical"}, "Cathepsin G": {"molecular_target": "Cathepsin G (Homo sapiens, UniProt P08311)", "sequence (P08311 21-244)": "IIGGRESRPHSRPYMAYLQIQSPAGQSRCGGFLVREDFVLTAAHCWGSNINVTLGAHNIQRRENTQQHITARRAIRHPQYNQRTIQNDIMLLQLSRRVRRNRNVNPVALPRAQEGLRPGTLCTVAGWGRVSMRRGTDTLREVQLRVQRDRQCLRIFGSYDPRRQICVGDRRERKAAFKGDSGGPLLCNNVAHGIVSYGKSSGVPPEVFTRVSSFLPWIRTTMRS", "test": "biochemical"}, "pK1": {"molecular_target": "pK1", "test": "Protease selectivity, Kiapp", "format": "biochemical", "settings": "Human"}, "Plasmin": {"molecular_target": "Plasmin (Homo sapiens, UniProt P00747)", "sequence (P00747 581-810 limits assumed)": "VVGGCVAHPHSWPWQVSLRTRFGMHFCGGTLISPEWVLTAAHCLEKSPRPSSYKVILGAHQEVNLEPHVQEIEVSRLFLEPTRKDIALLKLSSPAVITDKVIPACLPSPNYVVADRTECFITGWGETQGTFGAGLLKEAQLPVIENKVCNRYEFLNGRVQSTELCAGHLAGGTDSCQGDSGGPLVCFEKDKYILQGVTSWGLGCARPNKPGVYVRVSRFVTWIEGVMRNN", "sequence (P00747 97-580 partner limits assumed)": "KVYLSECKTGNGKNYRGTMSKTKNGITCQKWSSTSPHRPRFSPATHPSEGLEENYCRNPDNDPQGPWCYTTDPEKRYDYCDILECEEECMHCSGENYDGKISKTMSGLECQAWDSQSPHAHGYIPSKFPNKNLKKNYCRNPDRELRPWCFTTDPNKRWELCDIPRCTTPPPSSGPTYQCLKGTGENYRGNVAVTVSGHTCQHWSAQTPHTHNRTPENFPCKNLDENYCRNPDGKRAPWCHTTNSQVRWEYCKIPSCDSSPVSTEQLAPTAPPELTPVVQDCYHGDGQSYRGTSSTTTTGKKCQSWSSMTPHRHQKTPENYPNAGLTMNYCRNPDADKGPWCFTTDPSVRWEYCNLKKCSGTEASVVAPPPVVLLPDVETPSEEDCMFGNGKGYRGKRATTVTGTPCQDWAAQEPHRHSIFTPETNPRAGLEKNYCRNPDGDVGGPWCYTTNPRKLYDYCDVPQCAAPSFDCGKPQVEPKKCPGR", "test": "biochemical"}, "hK3": {"molecular_target": "hK3 (Homo sapiens, UniProt P07288)", "sequence (P07288 25-261)": "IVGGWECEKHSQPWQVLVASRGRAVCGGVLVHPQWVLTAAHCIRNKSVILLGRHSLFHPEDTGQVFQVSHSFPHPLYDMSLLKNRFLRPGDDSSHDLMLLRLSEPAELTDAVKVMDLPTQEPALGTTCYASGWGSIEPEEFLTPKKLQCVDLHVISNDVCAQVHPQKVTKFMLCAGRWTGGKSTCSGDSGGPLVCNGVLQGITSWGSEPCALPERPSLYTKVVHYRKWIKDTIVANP", "test": "biochemical"}, "[1]": {"molecular_target": "Elastase (Pankreas proteases) (Sus scrofa, UniProt P00772)", "sequence (P00772 27-266)": "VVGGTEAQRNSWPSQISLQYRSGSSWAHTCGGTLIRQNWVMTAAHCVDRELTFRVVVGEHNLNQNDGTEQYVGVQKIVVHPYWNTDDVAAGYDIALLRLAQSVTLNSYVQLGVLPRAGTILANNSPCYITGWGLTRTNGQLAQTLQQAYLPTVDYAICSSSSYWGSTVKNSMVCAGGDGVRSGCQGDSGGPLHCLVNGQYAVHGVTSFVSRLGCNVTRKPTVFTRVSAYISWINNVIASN", "test": "biochemical"}, "Trypsin [2]": {"molecular_target": "Trypsin (Sus scrofa, UniProt P00761)", "sequence (P00761 9-231)": "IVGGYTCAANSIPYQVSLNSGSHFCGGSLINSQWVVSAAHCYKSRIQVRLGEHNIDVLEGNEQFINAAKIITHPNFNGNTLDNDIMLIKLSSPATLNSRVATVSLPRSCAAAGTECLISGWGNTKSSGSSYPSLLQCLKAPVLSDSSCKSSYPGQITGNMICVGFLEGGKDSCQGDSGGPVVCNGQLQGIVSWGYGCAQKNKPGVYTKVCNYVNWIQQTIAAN", "test": "biochemical"}, "Tryptase β-II": {"molecular_target": "Tryptase β-II (Homo sapiens, UniProt P20231)", "sequence (P20231 31-275)": "as the sequence (P20231 31-275) above", "test": "biochemical"}, "Tryptase ST2": {"molecular_target": "Tryptase ST2 (Ovis aries, UniProt Q9XSM2)", "sequence (Q9XSM2 29-273)": "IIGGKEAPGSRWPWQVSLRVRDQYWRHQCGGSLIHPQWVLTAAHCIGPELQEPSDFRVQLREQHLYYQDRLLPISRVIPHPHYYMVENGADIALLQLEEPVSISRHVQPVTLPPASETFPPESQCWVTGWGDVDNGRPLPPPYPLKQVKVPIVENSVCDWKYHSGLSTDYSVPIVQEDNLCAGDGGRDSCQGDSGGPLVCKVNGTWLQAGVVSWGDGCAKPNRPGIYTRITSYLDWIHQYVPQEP", "test": "biochemical"}, "tetrameric tryptase": {"molecular_target": "tetrameric tryptase (Homo sapiens, UniProt P20231)", "sequence (P20231 31-275)": "as the sequence (P20231 31-275) above", "settings": "cited from earlier work"}, "Trypsin [3]": {"molecular_target": "T2, Trypsin (Bos taurus, UniProt P00760)", "T2 sequence (P00760 24-246)": "T1 sequence (P00760 24-246)", "test": "Kiapp determination with trypsin (Example 3)", "format": "biochemical, bovine", "from_the_text": "Therefore, bovine pancreatic trypsin was standardised by active-site titration using p-Nitrophenyl p′-guanidinobenzoate (Chase & Shaw, 1970)."}}, "note": "Read-outs that look alike come from different tables or passages of the source. Bridge positions count the residues as written; N and C are the ends. Peptide text beside a SMILES is read from it."}
{"compound": "CC[C@H](C)[C@@H]1NC(=O)[C@H](CCCCN)NC(=O)[C@@H]2CCCN2C(=O)[C@@H](NC(=O)[C@@H](NC(=O)[C@H](CO)NC(=O)CN)C(C)C)CSSC[C@@H]2NC(=O)CNC(=O)[C@H](C)NC(=O)[C@H](CC(C)C)NC(=O)[C@@H]3CSSC[C@@H](C(=O)NCC(=O)N[C@@H](CO)C(=O)O)NC(=O)[C@H](Cc4ccccc4)NC(=O)CNC(=O)[C@H](CC(N)=O)NC(=O)[C@@H]4CCCN4C(=O)CNC(=O)[C@H](CSSC[C@H](NC(=O)[C@H](CCCCN)NC(=O)[C@H](CCCCN)NC(=O)[C@H](CC(C)C)NC1=O)C(=O)N[C@@H](CCCNC(=N)N)C(=O)N[C@@H](CCCNC(=N)N)C(=O)N[C@@H](CC(=O)O)C(=O)N[C@@H](CO)C(=O)N[C@@H](CC(=O)O)C(=O)N3)NC(=O)[C@H](C(C)C)NC2=O", "note": "[MCoEeTI] (H-GSVCPKILKKCRRDSDCLAGCVCGPNGFCGS-OH; disulfide 4-21, 11-23, 17-29; N-terminus and C-terminus assumed)", "values": [{"measurement": "Ki", "setting": "β3-Tryptase", "value": 200, "unit": "nM"}, {"measurement": "inhibition of bovine trypsin (in words)", "setting": "bovine trypsin", "value": "strong inhibitory activity"}]}
{"compound": "CC[C@H](C)[C@@H]1NC(=O)[C@H](CCCCN)NC(=O)[C@@H]2CCCN2C(=O)[C@@H](NC(=O)[C@@H](NC(=O)CN)C(C)C)CSSC[C@@H]2NC(=O)CNC(=O)[C@H](C)NC(=O)[C@H](CC(C)C)NC(=O)[C@@H]3CSSC[C@@H](C(=O)NCC(=O)N[C@@H](CO)C(=O)O)NC(=O)[C@H](Cc4ccccc4)NC(=O)CNC(=O)[C@H](CC(N)=O)NC(=O)[C@@H]4CCCN4C(=O)CNC(=O)[C@H](CSSC[C@H](NC(=O)[C@H](CCCCN)NC(=O)[C@H](CCCCN)NC(=O)[C@H](CC(C)C)NC1=O)C(=O)N[C@@H](CCCNC(=N)N)C(=O)N[C@@H](CCCNC(=N)N)C(=O)N[C@@H](CC(=O)O)C(=O)N[C@@H](CO)C(=O)N[C@@H](CC(=O)O)C(=O)N3)NC(=O)[C@H](C(C)C)NC2=O", "note": "[SE-MG-0] (H-GVCPKILKKCRRDSDCLAGCVCGPNGFCGS-OH; disulfide 3-20, 10-22, 16-28; N-terminus and C-terminus assumed)", "values": [{"measurement": "Ki", "setting": "Tryptase β-Ia", "value": 70, "unit": "nM"}, {"measurement": "Ki", "setting": "Thrombin", "value": "> 1000", "unit": "nM"}, {"measurement": "Ki", "setting": "β3-Tryptase", "value": 100, "unit": "nM"}, {"measurement": "Ki", "setting": "Chymotrypsin", "value": "> 1000", "unit": "nM"}, {"measurement": "Ki", "setting": "tPA", "value": "> 1000", "unit": "nM"}, {"measurement": "Ki", "setting": "Elastase (Neutrophiles)", "value": "> 1000", "unit": "nM"}, {"measurement": "Ki", "setting": "Faktor XA", "value": "> 1000", "unit": "nM"}, {"measurement": "Ki", "setting": "Cathepsin G", "value": "> 1000", "unit": "nM"}, {"measurement": "Ki", "setting": "pK1", "value": "> 1000", "unit": "nM"}, {"measurement": "Ki", "setting": "Plasmin", "value": "~600", "unit": "nM"}, {"measurement": "Ki", "setting": "hK3", "value": "> 1000", "unit": "nM"}, {"measurement": "Ki", "setting": "[1]", "value": "> 1000", "unit": "nM"}, {"measurement": "Ki", "setting": "Trypsin [2]", "value": 0.3, "unit": "nM"}, {"measurement": "Ki", "setting": "Tryptase β-II", "value": 70, "unit": "nM"}, {"measurement": "Ki", "setting": "Tryptase ST2", "value": 4000, "unit": "nM"}]}
{"compound": "EETI-II [reference compound]", "values": [{"measurement": "inhibition of bovine trypsin (in words)", "setting": "bovine trypsin", "value": "strong inhibitory activity"}]}
{"compound": "LDTI: leech derived tryptase Inhibitor, a 46 residue Kazal-type protein (KKVCACPKILKPVCGSDGRTYANSCIARCNGVSIKSEGSCPTGILN; UniProt P80424 1-46, looked up)", "values": [{"measurement": "Ki", "setting": "tetrameric tryptase; 2 of the 4 catalytic sites of the tetrameric tryptase", "value": 1.4, "unit": "nM"}, {"measurement": "Ki", "setting": "tetrameric tryptase; one of the remaining two sites", "value": 560, "unit": "nM"}, {"measurement": "Ki", "setting": "tetrameric tryptase; the other of the remaining two sites", "value": 10000, "unit": "nM"}]}
{"compound": "MCoEeTI-3R-3: Barnase′-[…] (SEQ ID NO:4) (SSSMGVCPRILRRCRRDSDCLAGCVCGPNGFCGS; not fully specified)", "values": [{"measurement": "Ki", "setting": "β3-Tryptase; read-out: Kiapp β3-Tryptase", "value": 30, "unit": "nM"}, {"measurement": "Ki", "setting": "Trypsin [3]", "value": 0.2, "unit": "nM"}]}
{"compound": "MCoEeTI-ARD-2: Barnase′-[…] (SEQ ID NO:39) (SSSMGVCPKILKACARDSDCLAGCVCGPNGFCGS; not fully specified)", "values": [{"measurement": "Ki", "setting": "Trypsin [3]", "value": 0.2, "unit": "nM"}]}
{"compound": "MCoEeTI-KKV-1: Ba′-[…] (SEQ ID NO:5) (SSSMGKKVGVCPKILKKCRRDSDCLAGCVCGPNGFCGS; not fully specified)", "values": [{"measurement": "Ki", "setting": "β3-Tryptase; read-out: Kiapp β3-Tryptase", "value": 20, "unit": "nM"}, {"measurement": "Ki", "setting": "Trypsin [3]", "value": 0.2, "unit": "nM"}]}
{"compound": "MCoEeTI-LKA-7: Bar′-[…] (SEQ ID NO:40) (SSSMGVCPKILKACRRDSDCLAGCVCGPNGFCGS; not fully specified)", "values": [{"measurement": "Ki", "setting": "Trypsin [3]", "value": 0.2, "unit": "nM"}]}
{"compound": "MCoEeTI-QRT-7: Barnase′-[…] (SEQ ID NO:38) (SSSMGVCPRNRQRCRRDSDCLAGCVCTNNKFCGS; not fully specified)", "values": [{"measurement": "Ki", "setting": "Trypsin [3]", "value": 1, "unit": "nM"}]}
{"compound": "MCoEeTI-T-1: Barnase′-[…] (SEQ ID NO:6) (SSSMGVCPKILKKCRRDSDCLAGCVCTNNKFCGS; not fully specified)", "values": [{"measurement": "Ki", "setting": "β3-Tryptase; read-out: Kiapp β3-Tryptase", "value": 150, "unit": "nM"}, {"measurement": "Ki", "setting": "Trypsin [3]", "value": 0.1, "unit": "nM"}]}
{"compound": "SE-BMG-0: Barnase′-[…] (SEQ ID NO:3) (SSSMGVCPKILKKCRRDSDCLAGCVCGPNGFCGS; not fully specified)", "values": [{"measurement": "Ki", "setting": "β3-Tryptase; read-out: Kiapp β3-Tryptase", "value": 100, "unit": "nM"}, {"measurement": "Ki", "setting": "Trypsin [3]", "value": 0.2, "unit": "nM"}]}
